# Measurements reported in the NIST ThermoML archive (doi:10.1016/j.tca.2016.05.007).
# ± gives the expanded uncertainty stated by the source.
compound,measurement,setting,value
"COc1ccc(C2(c3ccc(OC)c(C)c3)OC(=O)c3ccccc32)cc1C [3,3-bis(4-methoxy-3-methylphenyl)-1(3H)-isobenzofuranone]",Normal melting temperature,"Crystal, DTA",110.1 ± 0.4 °C
same,Glass transition temperature,"Glass, Adiabatic calorimetry",41.2 ± 0.1 °C
